Our source for the IC50 values is US11352345B2, “Cyclohexyl acid pyrazole azoles as LPA antagonists” (BRISTOL-MYERS SQUIBB COMPANY, priority 2017, dated 2022).

Usually IC50 stands for the midpoint of a concentration-inhibition curve.

Each structure is given as a SMILES string. Counter-ions that a name gives are not always drawn.

T1 sequence (Q92633 whole entry): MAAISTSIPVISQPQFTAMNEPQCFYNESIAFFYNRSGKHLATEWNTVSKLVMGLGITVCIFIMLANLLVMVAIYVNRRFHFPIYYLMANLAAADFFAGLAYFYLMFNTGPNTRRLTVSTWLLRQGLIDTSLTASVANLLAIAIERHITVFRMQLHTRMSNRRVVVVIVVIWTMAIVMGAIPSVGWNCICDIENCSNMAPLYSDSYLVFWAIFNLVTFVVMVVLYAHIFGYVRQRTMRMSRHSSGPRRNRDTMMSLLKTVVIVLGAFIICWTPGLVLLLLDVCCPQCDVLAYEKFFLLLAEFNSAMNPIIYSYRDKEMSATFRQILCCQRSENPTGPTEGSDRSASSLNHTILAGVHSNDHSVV

The assay concerns the target T1, human LPA1 (Homo sapiens, UniProt Q92633).
T1 construct: expressed in transfected cells; host or cells: Chinese hamster ovary (CHO) cells
The experiment in a line: LPA1 functional antagonist assay (calcium flux). Type of assay: cell-based. The following applies: Chinese hamster ovary cells overexpressing human LPA1; calcium flux induced by 10 nM LPA; read-out: hLPA1 IC50. The method, then: The effectiveness of compounds of the present invention as LPA1 inhibitors can be determined in an LPA1 functional antagonist assay as follows:
Chinese hamster ovary cells overexpressing human LPA1 were plated overnight (15,000 cells/well) in poly-D-lysine coated 384-well microplates (Greiner bio-one, Cat #781946) in DMEM/F12 medium (Gibco, Cat #11039). Following overnight culture, cells were loaded with calcium indicator dye (AAT Bioquest Inc, Cat #34601) for 30 minutes at 37° C. The cells were then equilibrated to room temperature for 30 minutes before the assay. Test compounds solubilized in DMSO were transferred to 384 well non-binding surface plates (Corning, Cat #3575) using the Labcyte Echo acoustic dispense and diluted with assay buffer [1×HBSS with calcium/magnesium (Gibco Cat #14025-092), 20 mM HEPES (Gibco Cat #15630-080) and 0.1% fatty acid free BSA (Sigma Cat #A9205)] to a final concentration of 0.5% DMSO. Diluted compounds were added to the cells by FDSS6000 (Hamamatsu) at final concentrations ranging from 0.08 nM to 5 μM. and were then incubated for 20 min at room temperature at which time LPA (Avanti Polar Lipids Cat #857130C) was added at final concentrations of 10 nM to stimulate the cells.
The compound IC50 value was defined as the concentration of test compound which inhibited 50% of the calcium flux induced by LPA alone. IC50 values were determined by fitting data to a 4-parameter logistic equation (GraphPad Prism, San Diego Calif.).
(In general: Calcium assays in cells follow changes in intracellular calcium, usually with a dye or a luminescent sensor.)
Regarding `Cc1nc(-c2cnn(C)c2CNc2nc(C(C)C)ns2)ncc1O[C@H]1CCC[C@H](C(=O)O)C1` [Example 2, (1S,3S)-3-((2-(5-(((3-isopropyl-1,2,4-thiadiazol-5-yl)amino)methyl)-1-methyl-1H-pyrazol-4-yl)-4-methylpyrimidin-5-yl)oxy)cyclohexane-1-carboxylic acid], the IC50 was found to be 1860 nM.

As to `Cc1nc(-c2cnn(C)c2CNc2noc(CC3CCC3)n2)ncc1O[C@H]1CCC[C@H](C(=O)O)C1` [Example 7], the IC50 came out at 9 nM.

Turning to `CCCc1nsc(Nc2c(-c3ncc(O[C@H]4CCC[C@H](C(=O)O)C4)c(C)n3)cnn2C)n1` [Example 3, (1S,3S)-3-((4-methyl-2-(1-methyl-5-((3-propyl-1,2,4-thiadiazol-5-yl)amino)-1H-pyrazol-4-yl)pyrimidin-5-yl)oxy)cyclohexane-1-carboxylic acid], the IC50 was determined as 437 nM.

Turning to `Cc1nc(-c2cnn(C)c2Nc2nc(C3CC3)ns2)ncc1O[C@H]1CCC[C@H](C(=O)O)C1` [Example 5], the IC50 amounted to 341 nM.

For `Cc1nc(-c2cnn(C)c2CNc2noc(CCC(C)C)n2)ncc1O[C@H]1CCC[C@H](C(=O)O)C1` [Example 4, (1S,3S)-3-((2-(5-(((5-isopentyl-1,2,4-oxadiazol-3-yl)amino)methyl)-1-methyl-1H-pyrazol-4-yl)-4-methylpyrimidin-5-yl)oxy)cyclohexane-1-carboxylic acid, bis TFA salt], the IC50 is 10 nM.

On to `CCc1nc(-c2cnn(C)c2Cn2cc(Cc3ccccc3)nn2)ncc1O[C@H]1CCC[C@H](C(=O)O)C1` [Example 10], for which the IC50 is 26 nM.

For `CCCCc1nc(NCc2c(-c3ncc(O[C@H]4CCC[C@H](C(=O)O)C4)c(C)n3)cnn2C)no1` [Example 6], the IC50 came out at 31 nM.

As to `CCCCc1cn(Cc2c(-c3ncc(O[C@H]4CCC[C@H](C(=O)O)C4)c(CC)n3)cnn2C)nn1` [Example 11], the IC50 turned out to be 399 nM.

Consider `Cc1nc(-c2cnn(C)c2Cn2cc(CC3CC3)nn2)ncc1O[C@H]1CCC[C@H](C(=O)O)C1` [Example 9, (1S,3S)-3-((2-(5-((4-(cyclopropylmethyl)-1H-1,2,3-triazol-1-yl)methyl)-1-methyl-1H-pyrazol-4-yl)-4-methylpyrimidin-5-yl)oxy)cyclohexane-1-carboxylic acid], for which the IC50 was found to be 636 nM.

On to `Cc1nc(-c2cnn(C)c2CNc2ncn(-c3ccccc3)n2)ncc1O[C@H]1CCC[C@H](C(=O)O)C1` [Example 8], for which the concentration for half-maximal inhibition (IC50) was 91 nM.

As for `Cc1nc(-c2cnn(C)c2CNc2cnn(-c3ccccc3)n2)ncc1O[C@H]1CCC[C@H](C(=O)O)C1` [Example 1, (1S,3S)-3-((4-methyl-2-(1-methyl-5-(((2-phenyl-2H-1,2,3-triazol-4-yl)amino)methyl)-1H-pyrazol-4-yl)pyrimidin-5-yl)oxy)cyclohexane-1-carboxylicacid], the IC50 worked out at 35 nM.

On to `CCc1nc(-c2cnn(C)c2Cn2cc(CC3CC3)nn2)ncc1O[C@H]1CCC[C@H](C(=O)O)C1` [Example 12], for which the IC50 worked out at 230 nM.
